Measured values: patent US12247022B2, “Combinations for treatment of NASH/NAFLD and related diseases” (Pfizer Inc., priority 2018, dated 2025)
Structures can show the parent of a compound that is named as a salt.

Test: Thermodynamic stability of crystalline form versus water activity
Format: physicochemical
Details: ambient temperature; about 0.2 (20% RH)

water activity at which the form is thermodynamically stable | Compound
< 0.2 | COc1cc(C(=O)N2CCC3(CC2)CC(=O)c2c(cnn2C(C)C)C3)cc(-c2ccc(C(=O)O)cc2)n1 [Form 1 of Compound A, 4-(4-(1-isopropyl-7-oxo-1,4,6,7-tetrahydrospiro[indazole-5,4′-piperidine]-1′-carbonyl)-6-methoxypyridin-2-yl)benzoic acid anhydrous tris salt]
> 0.2 | COc1cc(C(=O)N2CCC3(CC2)CC(=O)c2c(cnn2C(C)C)C3)cc(-c2ccc(C(=O)O)cc2)n1 [Form 2 of Compound A]
